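1) Cells in 96-well plates. 2) Compound, 48 h, 5 concentrations. 3) Linear interpolation between surrounding doses. 4) Unreached endpoint = highest concentration. At the GI50, growth is halved. TGI is the concentration that stops growth completely.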
Key:
Assay in all cases: NCI tumour cell line growth inhibition, 48 h
786-0 renal = tested on: 786-0 renal
A549 NSCLC = tested on: A549 NSCLC
ACHN renal = tested on: ACHN renal
BT-549 breast = tested on: BT-549 breast
CAKI-1 renal = tested on: CAKI-1 renal
CCRF-CEM leukemia = tested on: CCRF-CEM leukemia
COLO 205 colon = tested on: COLO 205 colon
DU-145 prostate = tested on: DU-145 prostate
EKVX NSCLC = tested on: EKVX NSCLC
HCC-2998 colon = tested on: HCC-2998 colon
HCT-116 colon = tested on: HCT-116 colon
HCT-15 colon = tested on: HCT-15 colon
HL-60(TB) leukemia = tested on: HL-60(TB) leukemia
HOP-62 NSCLC = tested on: HOP-62 NSCLC
HOP-92 NSCLC = tested on: HOP-92 NSCLC
HS 578T breast = tested on: HS 578T breast
HT29 colon = tested on: HT29 colon
IGROV1 ovarian = tested on: IGROV1 ovarian
K-562 leukemia = tested on: K-562 leukemia
KM12 colon = tested on: KM12 colon
LOX IMVI melanoma = tested on: LOX IMVI melanoma
M14 melanoma = tested on: M14 melanoma
MALME-3M melanoma = tested on: MALME-3M melanoma
MCF7 breast = tested on: MCF7 breast
MDA-MB-231 breast = tested on: MDA-MB-231 breast
MDA-MB-435 = tested on: MDA-MB-435
MOLT-4 leukemia = tested on: MOLT-4 leukemia
NCI-H226 lung = tested on: NCI-H226 lung
NCI-H23 lung = tested on: NCI-H23 lung
NCI-H460 lung = tested on: NCI-H460 lung
NCI-H522 lung = tested on: NCI-H522 lung
NCI/ADR-RES ovarian = tested on: NCI/ADR-RES ovarian
OVCAR-3 ovarian = tested on: OVCAR-3 ovarian
OVCAR-4 ovarian = tested on: OVCAR-4 ovarian
OVCAR-5 ovarian = tested on: OVCAR-5 ovarian
OVCAR-8 ovarian = tested on: OVCAR-8 ovarian
PC-3 prostate = tested on: PC-3 prostate
RPMI-8226 leukemia = tested on: RPMI-8226 leukemia
RXF 393 renal = tested on: RXF 393 renal
SF-268 CNS = tested on: SF-268 CNS
SF-295 CNS = tested on: SF-295 CNS
SF-539 CNS = tested on: SF-539 CNS
SK-MEL-2 melanoma = tested on: SK-MEL-2 melanoma
SK-MEL-28 melanoma = tested on: SK-MEL-28 melanoma
SK-MEL-5 melanoma = tested on: SK-MEL-5 melanoma
SK-OV-3 ovarian = tested on: SK-OV-3 ovarian
SN12C renal = tested on: SN12C renal
SNB-19 CNS = tested on: SNB-19 CNS
SNB-75 CNS = tested on: SNB-75 CNS
SR leukemia = tested on: SR leukemia
SW-620 colon = tested on: SW-620 colon
T-47D breast = tested on: T-47D breast
TK-10 renal = tested on: TK-10 renal
U251 CNS = tested on: U251 CNS
UACC-257 melanoma = tested on: UACC-257 melanoma
UACC-62 melanoma = tested on: UACC-62 melanoma
UO-31 renal = tested on: UO-31 renal

CC(C)=CCc1c2c(c(O)c3c1O[C@]14C(=C[C@@H]5C[C@H]1C(C)(C)O[C@@]4(C/C=C(/C)C(=O)O)C5=O)C3=O)CC(O)C(C)(C)O2 (some centres undefined)
GI50 (786-0 renal): 19.7 µM
TGI (786-0 renal): 38 µM
GI50 (A549 NSCLC): 31 µM
TGI (A549 NSCLC): 78.1 µM
GI50 (ACHN renal): 27.7 µM
TGI (ACHN renal): 85.7 µM
GI50 (BT-549 breast): 12.4 µM
TGI (BT-549 breast): 26.4 µM
GI50 (CAKI-1 renal): 19.9 µM
TGI (CAKI-1 renal): 57 µM
GI50 (CCRF-CEM leukemia): 5.76 µM
TGI (CCRF-CEM leukemia): 40.9 µM
GI50 (COLO 205 colon): 20.2 µM
TGI (COLO 205 colon): 43.4 µM
GI50 (DU-145 prostate): 20.8 µM
TGI (DU-145 prostate): 48.1 µM
GI50 (EKVX NSCLC): 21.6 µM
TGI (EKVX NSCLC): 69.8 µM
GI50 (HCC-2998 colon): 17.7 µM
TGI (HCC-2998 colon): 32.9 µM
GI50 (HCT-116 colon): 13.2 µM
TGI (HCT-116 colon): 26.7 µM
GI50 (HCT-15 colon): 22.6 µM
TGI (HCT-15 colon): > 100 µM
GI50 (HL-60(TB) leukemia): 27.9 µM
TGI (HL-60(TB) leukemia): 68 µM
GI50 (HOP-62 NSCLC): 20.6 µM
TGI (HOP-62 NSCLC): 42.5 µM
GI50 (HOP-92 NSCLC): 22.1 µM
TGI (HOP-92 NSCLC): 48.9 µM
GI50 (HS 578T breast): 14.1 µM
TGI (HS 578T breast): 86 µM
GI50 (HT29 colon): 22 µM
TGI (HT29 colon): 62.4 µM
GI50 (IGROV1 ovarian): 20.3 µM
TGI (IGROV1 ovarian): 64.1 µM
GI50 (K-562 leukemia): 11.6 µM
TGI (K-562 leukemia): > 100 µM
GI50 (KM12 colon): 18.6 µM
TGI (KM12 colon): 39.6 µM
GI50 (LOX IMVI melanoma): 11.2 µM
TGI (LOX IMVI melanoma): 25.2 µM
GI50 (M14 melanoma): 14.7 µM
TGI (M14 melanoma): 34.7 µM
GI50 (MALME-3M melanoma): 21.9 µM
TGI (MALME-3M melanoma): 52.5 µM
GI50 (MCF7 breast): 9.1 µM
TGI (MCF7 breast): 52.4 µM
GI50 (MDA-MB-231 breast): 26.5 µM
TGI (MDA-MB-231 breast): 92.2 µM
GI50 (MDA-MB-435): 18.9 µM
TGI (MDA-MB-435): 51.8 µM
GI50 (MOLT-4 leukemia): 17.3 µM
TGI (MOLT-4 leukemia): 65.1 µM
GI50 (NCI-H226 lung): 23.8 µM
TGI (NCI-H226 lung): 72.7 µM
GI50 (NCI-H23 lung): 17.7 µM
TGI (NCI-H23 lung): 48.4 µM
GI50 (NCI-H460 lung): 16.7 µM
TGI (NCI-H460 lung): 39.6 µM
GI50 (NCI-H522 lung): 14.9 µM
TGI (NCI-H522 lung): 28.4 µM
GI50 (NCI/ADR-RES ovarian): 30.9 µM
TGI (NCI/ADR-RES ovarian): > 100 µM
GI50 (OVCAR-3 ovarian): 14.5 µM
TGI (OVCAR-3 ovarian): 28 µM
GI50 (OVCAR-4 ovarian): 24.4 µM
TGI (OVCAR-4 ovarian): 86.8 µM
GI50 (OVCAR-5 ovarian): 28.6 µM
TGI (OVCAR-5 ovarian): 74 µM
GI50 (OVCAR-8 ovarian): 18 µM
TGI (OVCAR-8 ovarian): 45.1 µM
GI50 (PC-3 prostate): 19.8 µM
TGI (PC-3 prostate): 49.1 µM
GI50 (RPMI-8226 leukemia): 10.1 µM
TGI (RPMI-8226 leukemia): 53.6 µM
GI50 (RXF 393 renal): 19 µM
TGI (RXF 393 renal): 38.2 µM
GI50 (SF-268 CNS): 14.7 µM
TGI (SF-268 CNS): 34.5 µM
GI50 (SF-295 CNS): 27.9 µM
TGI (SF-295 CNS): 87 µM
GI50 (SF-539 CNS): 20.7 µM
TGI (SF-539 CNS): 46.5 µM
GI50 (SK-MEL-2 melanoma): 16.6 µM
TGI (SK-MEL-2 melanoma): 34.7 µM
GI50 (SK-MEL-28 melanoma): 19.7 µM
TGI (SK-MEL-28 melanoma): 47.6 µM
GI50 (SK-MEL-5 melanoma): 15 µM
TGI (SK-MEL-5 melanoma): 30.3 µM
GI50 (SK-OV-3 ovarian): 40.6 µM
TGI (SK-OV-3 ovarian): > 100 µM
GI50 (SN12C renal): 18.9 µM
TGI (SN12C renal): 51 µM
GI50 (SNB-19 CNS): 17.7 µM
TGI (SNB-19 CNS): 40.4 µM
GI50 (SNB-75 CNS): 21.3 µM
TGI (SNB-75 CNS): 64.1 µM
GI50 (SR leukemia): 7.8 µM
TGI (SR leukemia): > 100 µM
GI50 (SW-620 colon): 13.2 µM
TGI (SW-620 colon): 33.2 µM
GI50 (T-47D breast): 19 µM
TGI (T-47D breast): 58.8 µM
GI50 (TK-10 renal): 23.8 µM
TGI (TK-10 renal): 41.1 µM
GI50 (U251 CNS): 15 µM
TGI (U251 CNS): 30.1 µM
GI50 (UACC-257 melanoma): 19.4 µM
TGI (UACC-257 melanoma): 43.8 µM
GI50 (UACC-62 melanoma): 15.5 µM
TGI (UACC-62 melanoma): 34.8 µM
GI50 (UO-31 renal): 14.8 µM
TGI (UO-31 renal): 32.7 µM

Source: PubChem BioAssay (NCI)
